Data published in the supplement of paper PMC10307832.

How the values were obtained:
Assay in all cases: relative viability (nuclei count vs DMSO), 5 days (fraction); higher = more cells survive
A-427 = test system: A-427
Method in brief: (§1)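 Five library-drug doses in √10 steps were combined with a fixed anchor-drug dose, or a single drug was given alone, by pin tool to lung cancer cell lines in 1536-well plates the day after seeding. Nuclei were stained and counted after 5 days. Relative viability is the nuclei count in treated wells over that in vehicle wells, taken as the median of duplicate plates.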

CAL-12T = test system: CAL-12T
Method in brief: as §1

EMC-BAC-2 = test system: EMC-BAC-2
Method in brief: as §1

HARA = test system: HARA
Method in brief: as §1

HCC-366 = test system: HCC-366
Method in brief: as §1

HCC-827 = test system: HCC-827
Method in brief: as §1

HOP-62 = test system: HOP-62
Method in brief: as §1

LCLC-103H = test system: LCLC-103H
Method in brief: as §1

NCI-H1395 = test system: NCI-H1395
Method in brief: as §1

NCI-H1437 = test system: NCI-H1437
Method in brief: as §1

NCI-H1755 = test system: NCI-H1755
Method in brief: as §1

NCI-H1792 = test system: NCI-H1792
Method in brief: as §1

NCI-H1915 = test system: NCI-H1915
Method in brief: as §1

NCI-H23 = test system: NCI-H23
Method in brief: as §1

NCI-H460 = test system: NCI-H460
Method in brief: as §1

NCI-H522 = test system: NCI-H522
Method in brief: as §1

NCI-H727 = test system: NCI-H727
Method in brief: as §1

Q: Which relative viability (A-427; first compound 0.005 µM) does the source give for `Nc1ccn([C@@H]2O[C@H](CO)[C@@H](O)[C@@H]2O)c(=O)n1` [Cytarabine] + NC(=O)Nc1cc(-c2cccc(F)c2)sc1C(=O)N[C@H]1CCCNC1 [AZD7762] (partner 0.2 µM) here?
A: 0.343

Q: And the relative viability (A-427; first compound 0.01581 µM)?
A: 0.246

Q: What about the relative viability (A-427; first compound 0.05 µM) of the same compound?
A: 0.218

Q: And the relative viability (A-427; first compound 0.1581 µM)?
A: 0.184

Q: And the relative viability (A-427; first compound 0.5 µM)?
A: 0.184

Q: And the relative viability (CAL-12T; first compound 0.005 µM)?
A: 0.611

Q: And the relative viability (CAL-12T; first compound 0.01581 µM)?
A: 0.405

Q: What about the relative viability (CAL-12T; first compound 0.05 µM) of the same compound?
A: 0.248

Q: And the relative viability (CAL-12T; first compound 0.1581 µM)?
A: 0.208

Q: What about the relative viability (CAL-12T; first compound 0.5 µM) of the same compound?
A: 0.221

Q: And the relative viability (EMC-BAC-2; first compound 0.005 µM)?
A: 1.09

Q: What about the relative viability (EMC-BAC-2; first compound 0.01581 µM) of the same compound?
A: 0.97

Q: And the relative viability (EMC-BAC-2; first compound 0.05 µM)?
A: 0.674

Q: And the relative viability (EMC-BAC-2; first compound 0.1581 µM)?
A: 0.344

Q: And the relative viability (EMC-BAC-2; first compound 0.5 µM)?
A: 0.308

Q: What about the relative viability (HARA; first compound 0.005 µM) of the same compound?
A: 0.298

Q: What about the relative viability (HARA; first compound 0.01581 µM) of the same compound?
A: 0.211

Q: And the relative viability (HARA; first compound 0.05 µM)?
A: 0.176

Q: And the relative viability (HARA; first compound 0.1581 µM)?
A: 0.157

Q: What about the relative viability (HARA; first compound 0.5 µM) of the same compound?
A: 0.171

Q: And the relative viability (HCC-366; first compound 0.005 µM)?
A: 0.139

Q: And the relative viability (HCC-366; first compound 0.01581 µM)?
A: 0.0915

Q: And the relative viability (HCC-366; first compound 0.05 µM)?
A: 0.107

Q: And the relative viability (HCC-366; first compound 0.1581 µM)?
A: 0.0525

Q: And the relative viability (HCC-366; first compound 0.5 µM)?
A: 0.038

Q: What about the relative viability (HCC-827; first compound 0.005 µM) of the same compound?
A: 0.17

Q: And the relative viability (HCC-827; first compound 0.01581 µM)?
A: 0.168

Q: And the relative viability (HCC-827; first compound 0.05 µM)?
A: 0.13

Q: And the relative viability (HCC-827; first compound 0.1581 µM)?
A: 0.14

Q: And the relative viability (HCC-827; first compound 0.5 µM)?
A: 0.148

Q: What about the relative viability (HOP-62; first compound 0.005 µM) of the same compound?
A: 0.391

Q: And the relative viability (HOP-62; first compound 0.01581 µM)?
A: 0.157

Q: What about the relative viability (HOP-62; first compound 0.05 µM) of the same compound?
A: 0.203

Q: And the relative viability (HOP-62; first compound 0.1581 µM)?
A: 0.107

Q: What about the relative viability (HOP-62; first compound 0.5 µM) of the same compound?
A: 0.0888

Q: And the relative viability (LCLC-103H; first compound 0.005 µM)?
A: 0.763

Q: And the relative viability (LCLC-103H; first compound 0.01581 µM)?
A: 0.704

Q: And the relative viability (LCLC-103H; first compound 0.05 µM)?
A: 0.751

Q: And the relative viability (LCLC-103H; first compound 0.1581 µM)?
A: 0.469

Q: And the relative viability (LCLC-103H; first compound 0.5 µM)?
A: 0.369

Q: What about the relative viability (NCI-H1395; first compound 0.005 µM) of the same compound?
A: 0.383

Q: What about the relative viability (NCI-H1395; first compound 0.01581 µM) of the same compound?
A: 0.39

Q: What about the relative viability (NCI-H1395; first compound 0.05 µM) of the same compound?
A: 0.331

Q: What about the relative viability (NCI-H1395; first compound 0.1581 µM) of the same compound?
A: 0.364

Q: And the relative viability (NCI-H1395; first compound 0.5 µM)?
A: 0.351

Q: What about the relative viability (NCI-H1437; first compound 0.005 µM) of the same compound?
A: 1.04

Q: What about the relative viability (NCI-H1437; first compound 0.01581 µM) of the same compound?
A: 0.549

Q: And the relative viability (NCI-H1437; first compound 0.05 µM)?
A: 0.321

Q: And the relative viability (NCI-H1437; first compound 0.1581 µM)?
A: 0.167

Q: What about the relative viability (NCI-H1437; first compound 0.5 µM) of the same compound?
A: 0.146

Q: And the relative viability (NCI-H1755; first compound 0.005 µM)?
A: 0.501

Q: And the relative viability (NCI-H1755; first compound 0.01581 µM)?
A: 0.314

Q: And the relative viability (NCI-H1755; first compound 0.05 µM)?
A: 0.334

Q: And the relative viability (NCI-H1755; first compound 0.1581 µM)?
A: 0.372

Q: And the relative viability (NCI-H1755; first compound 0.5 µM)?
A: 0.298

Q: What about the relative viability (NCI-H1792; first compound 0.01581 µM) of the same compound?
A: 0.39

Q: And the relative viability (NCI-H1792; first compound 0.05 µM)?
A: 0.275

Q: And the relative viability (NCI-H1792; first compound 0.1581 µM)?
A: 0.0675

Q: And the relative viability (NCI-H1792; first compound 0.5 µM)?
A: 0.0488

Q: And the relative viability (NCI-H1915; first compound 0.005 µM)?
A: 0.579

Q: And the relative viability (NCI-H1915; first compound 0.01581 µM)?
A: 0.386

Q: And the relative viability (NCI-H1915; first compound 0.05 µM)?
A: 0.241

Q: And the relative viability (NCI-H1915; first compound 0.1581 µM)?
A: 0.155

Q: What about the relative viability (NCI-H1915; first compound 0.5 µM) of the same compound?
A: 0.131

Q: What about the relative viability (NCI-H23; first compound 0.005 µM) of the same compound?
A: 0.227

Q: What about the relative viability (NCI-H23; first compound 0.01581 µM) of the same compound?
A: 0.171

Q: And the relative viability (NCI-H23; first compound 0.05 µM)?
A: 0.202

Q: And the relative viability (NCI-H23; first compound 0.1581 µM)?
A: 0.126

Q: And the relative viability (NCI-H23; first compound 0.5 µM)?
A: 0.134

Q: What about the relative viability (NCI-H460; first compound 0.005 µM) of the same compound?
A: 0.209

Q: What about the relative viability (NCI-H460; first compound 0.01581 µM) of the same compound?
A: 0.0904

Q: And the relative viability (NCI-H460; first compound 0.05 µM)?
A: 0.0497

Q: And the relative viability (NCI-H460; first compound 0.1581 µM)?
A: 0.0319

Q: And the relative viability (NCI-H460; first compound 0.5 µM)?
A: 0.0286

Q: What about the relative viability (NCI-H522; first compound 0.005 µM) of the same compound?
A: 0.827

Q: And the relative viability (NCI-H522; first compound 0.01581 µM)?
A: 0.605

Q: And the relative viability (NCI-H522; first compound 0.05 µM)?
A: 0.72

Q: And the relative viability (NCI-H522; first compound 0.1581 µM)?
A: 0.426

Q: What about the relative viability (NCI-H522; first compound 0.5 µM) of the same compound?
A: 0.34

Q: And the relative viability (NCI-H727; first compound 0.005 µM)?
A: 0.518

Q: And the relative viability (NCI-H727; first compound 0.01581 µM)?
A: 0.565

Q: What about the relative viability (NCI-H727; first compound 0.05 µM) of the same compound?
A: 0.377

Q: And the relative viability (NCI-H727; first compound 0.1581 µM)?
A: 0.361

Q: And the relative viability (NCI-H727; first compound 0.5 µM)?
A: 0.418
